The values below are quoted from earlier work in US12090150B2, “Deuterated analogs of elacridar” (priority 2018, dated 2024).

Structures are written as SMILES.

For data set [1], the system named is P-gp/BCRP pumps located in the GI tract. To be noted: cancer patients.
The test system of data set [2] is P-gp and BCRP at the blood brain barrier. To be noted: rodents; morphine, amprenavir, imatinib, dasatinib, gefitinib, sorafenib, sunitinib.

As to `COc1cc2c(cc1OC)CN(CCc1ccc(NC(=O)c3cccc4c(=O)c5cccc(OC)c5[nH]c34)cc1)CC2` [elacridar, 9,10-dihydro-5-methoxy-9-oxo-N-[4-[2-(1,2,3,4-tetrahydro-6,7-dimethoxy-2-isoquinolinyl)ethyl]phenyl]-4-acridine-carboxamide], the solubility in water entry is “practically insoluble in water”. Moreover, in data set [1], the “oral absorption of coadministered paclitaxel (P-gp substrate) and topotecan (BCRP substrate)” value was “improved”. Moreover, the “increase of drug levels in the brain of coadministered pump substrates” value in data set [2] is listed as “some success”.
